5 compounds from patent publication US8993574B2, “Pyrrole antifungal agents” (F2G Ltd, priority 2008, dated 2015) can be followed below.

Values after ≈ are worked out from the molar mass of the structure shown.

Common to all, as to format: cell-based
Assay [1] concerns Aspergillus flavus. Kind of assay: MIC, YAG medium. The settings on record: 24 h at 35° C, MIC banded into grades; for MIC: Aspergillus flavus, 24 h, read-out: MIC grade, A. flavus. An outline of the steps:
(§1)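 DMSO stocks diluted in water as doubling series; spore suspension in YAG (glucose, NH4Cl, yeast extract) added to give 1−2×10^4 cfu/mL. 35° C, 24 h. Growth by OD485; MIC at >70% inhibition, mg/L.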

Assay [2] deals with Aspergillus fumigatus AF210. In words: MIC, YAG medium. The settings on record: 24 h at 35° C, MIC banded into grades; for MIC: Aspergillus fumigatus, read-out: MIC grade, A. fumigatus 210. The method in brief: as §1
Assay [3] concerns Aspergillus fumigatus AF293. In words: MIC, YAG medium. The settings on record: 24 h at 35° C, MIC banded into grades; for MIC: Aspergillus fumigatus, read-out: MIC grade, A. fumigatus. An outline of the steps: as §1
Assay [4] concerns Aspergillus niger. In words: MIC, YAG medium. Conditions: 24 h at 35° C, MIC banded into grades; for MIC: Aspergillus niger, read-out: MIC grade, A. niger. An outline of the steps: as §1
Assay [5] concerns Aspergillus terreus AT49. Kind of assay: MIC, YAG medium. Conditions: 24 h at 35° C, MIC banded into grades; for MIC: Aspergillus terreus, read-out: MIC grade, A. terreus 49. The method in brief: as §1
In assay [6] the test system is Aspergillus terreus AT4. Kind of assay: MIC, YAG medium. Conditions: 24 h at 35° C, MIC banded into grades; for MIC: Aspergillus terreus, read-out: MIC grade, A. terreus. An outline of the steps:
as §1

For assay [7], the system named is Aspergillus flavus. Kind of assay: MIC, RPMI medium. Conditions: MIC banded into grades; for MIC: Aspergillus flavus, read-out: MIC grade, A. flavus. An outline of the steps: (§2)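 OD485-based endpoint after 24-48 h/35° C; MIC = lowest concentration, >80% inhibition relative to drug-free. RPMI/2% glucose/0.135 M MOPS pH 7.0; 1−2×10^4 cfu/mL; range 50-0.05 mg/L.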
Assay [8] has as its system Aspergillus fumigatus AF210. Kind of assay: MIC, RPMI medium. The settings on record: for MIC: Aspergillus fumigatus, AF210, MIC banded into grades, read-out: MIC grade, A. fumigatus 210; for MIC grade, A. fumigatus 210: MIC banded into grades. An outline of the steps: as §2
Assay [9] concerns Aspergillus fumigatus AF293. In words: MIC, RPMI medium. Conditions: for MIC: Aspergillus fumigatus, AF293, MIC banded into grades, read-out: MIC grade, A. fumigatus; for MIC grade, A. fumigatus: MIC banded into grades. The method in brief: as §2
For assay [10], the system named is Aspergillus niger. In words: MIC, RPMI medium. Conditions: MIC banded into grades; for MIC: Aspergillus niger, read-out: MIC grade, A. niger. The method in brief: as §2
Assay [11] concerns Aspergillus terreus AT49. In words: MIC, RPMI medium. Conditions: for MIC: Aspergillus terreus, AT49, MIC banded into grades, read-out: MIC grade, A. terreus 49; for MIC grade, A. terreus 49: MIC banded into grades. The method in brief: as §2
Assay [12] concerns Aspergillus terreus AT4. In words: MIC, RPMI medium. Conditions: for MIC: Aspergillus terreus, AT4, MIC banded into grades, read-out: MIC grade, A. terreus; for MIC grade, A. terreus: MIC banded into grades. The method in brief:
as §2

Assay [13] deals with Candida albicans. In words: MIC, RPMI medium. Conditions: 24-48 h at 35° C., >80% growth inhibition, banded into grades; for MIC: Candida albicans. An outline of the steps: as §2
Assay [14] has as its system Candida glabrata. Kind of assay: MIC, RPMI medium. Conditions: 24-48 h at 35° C., >80% growth inhibition, banded into grades; for MIC: Nakaseomyces glabratus. An outline of the steps: as §2
Assay [15] relates to Candida krusei. Kind of assay: MIC, RPMI medium. Conditions: 24-48 h at 35° C., >80% growth inhibition, banded into grades; for MIC: Pichia kudriavzevii. The method in brief: as §2
Assay [16] concerns Candida parapsilosis. In words: MIC, RPMI medium. The settings on record: 24-48 h at 35° C., >80% growth inhibition, banded into grades; for MIC: Lodderomyces parapsilosis. The method in brief:
as §2

For assay [17], the system named is Candida tropicalis. Kind of assay: MIC, RPMI medium. The settings on record: 24-48 h at 35° C., >80% growth inhibition, banded into grades; for MIC: Candida tropicalis. An outline of the steps: as §2

As a reminder, the MIC is the lowest concentration that inhibits growth of the organism. Turning to `Cc1cc(C)nc(N2CCN(c3ccc(NC(=O)C(=O)c4cc(-c5ccccc5)cn4CCN(C)C)cc3)CC2)c1` [Example 85, 2-[1-(2-Dimethylamino-ethyl)-4-phenyl-1H-pyrrol-2-yl]-N-{4-[4-(4,6-dimethyl-pyridin-2-yl)-piperazin-1-yl]-phenyl}-2-oxo-acetamide], the MIC was over 10 µg/mL in assay [1]; over 10 µg/mL in assay [2]; over 10 µg/mL in assay [3]; 1 to 10 µg/mL (≈ 1.82 to 18.2 µM) in [4]; over 10 µg/mL in assay [5]; over 10 µg/mL in assay [6]. Also, the minimal inhibitory concentration (MIC) in assay [7] was over 10 µg/mL; in [8], over 10 µg/mL; in assay [9], over 10 µg/mL; in assay [10], 1 to 10 µg/mL (≈ 1.82 to 18.2 µM); in [11], 1 to 10 µg/mL (≈ 1.82 to 18.2 µM); in assay [12] it was 1 to 10 µg/mL (≈ 1.82 to 18.2 µM). In addition, the MIC in assay [13], in [14], in assay [15], in [16] and in assay [17] was 1 to 10 µg/mL (≈ 1.82 to 18.2 µM) in each case.
On to `COCCn1ccc(-c2ccsc2)c1C(=O)C(=O)Nc1ccc(N2CCN(c3cc(C)cc(C)n3)CC2)cc1` [Example 72, N-{4-[4-(4,6-Dimethyl-pyridin-2-yl)-piperazin-1-yl]-phenyl}-2-[1-(2-methoxy-ethyl)-3-thiophen-3-yl-1H-pyrrol-2-yl]-2-oxo-acetamide], for which the MIC is 1 to 10 µg/mL (≈ 1.84 to 18.4 µM) in [1]; under 1 µg/mL in assay [2]; under 1 µg/mL in assay [3]; under 1 µg/mL in assay [4]; under 1 µg/mL in assay [5]; under 1 µg/mL in [6]. Besides, the MIC in assay [7], in assay [8], in [9], in [10], in assay [11] and in [12] was 1 to 10 µg/mL (≈ 1.84 to 18.4 µM) each time. The MIC is under 1 µg/mL in [13]; under 1 µg/mL in assay [14]; 1 to 10 µg/mL (≈ 1.84 to 18.4 µM) in assay [15]; under 1 µg/mL in [16]; under 1 µg/mL in [17].
Take `COC(=O)Cn1ccc(-c2cccs2)c1C(=O)C(=O)Nc1ccc(N2CCN(c3cc(C)cc(C)n3)CC2)cc1` [Example 87, (2-{4-[4-(4,6-Dimethyl-pyridin-2-yl)-piperazin-1-yl]-phenylaminooxalyl}-3-thiophen-2-yl-pyrrol-1-yl)-acetic acid methyl ester]: the “MIC grade, A. flavus” value in [1] and in assay [7] was 1 (a grade of 1 represents an MIC of greater than 10 mg/L) in each case. Further, the “MIC grade, A. fumigatus 210” value in assay [2] and in assay [8] was 3 (A grade of 3 represents an MIC of less than 1 mg/L) each time. Moreover, the “MIC grade, A. fumigatus” value in assay [3] and in assay [9] was 3 (A grade of 3 represents an MIC of less than 1 mg/L) each time. In addition, the “MIC grade, A. niger” value in assay [4] and in [10] was 3 (A grade of 3 represents an MIC of less than 1 mg/L) in each case. The “MIC grade, A. terreus 49” value in [5] is reported as 3 (A grade of 3 represents an MIC of less than 1 mg/L); in assay [11], 2 (A grade of 2 represents an MIC of from 1 to 10 mg/L). In addition, the “MIC grade, A. terreus” value in assay [6] and in assay [12] was 2 (A grade of 2 represents an MIC of from 1 to 10 mg/L) each time. Further, the “Candida MIC, C. albicans” value in assay [13] is 2 (A grade of 2 represents an MIC of from 1 to 10 mg/L). In [14], the “Candida MIC, C. glabrata” value was 3 (A grade of 3 represents an MIC of less than 1 mg/L). The “Candida MIC, C. krusei” value in [15] was 2 (A grade of 2 represents an MIC of from 1 to 10 mg/L). Further, in assay [16], the “Candida MIC, C. parapsilosis” value is recorded as 3 (A grade of 3 represents an MIC of less than 1 mg/L). In addition, in assay [17], the “Candida MIC, C. tropicalis” value was 3 (A grade of 3 represents an MIC of less than 1 mg/L).
For the compound `CNC(=O)Cn1ccc(-c2ccccc2)c1C(=O)C(=O)Nc1ccc(N2CCN(c3cc(C)cc(C)n3)CC2)cc1` [Example 76, N-{4-[4-(4,6-Dimethyl-pyridin-2-yl)-piperazin-1-yl]-phenyl}-2-(1-methylcarbamoylmethyl-3-phenyl-1H-pyrrol-2-yl)-2-oxo-acetamide], the MIC in assay [1] is over 10 µg/mL; in [2], 1 to 10 µg/mL (≈ 1.82 to 18.2 µM); in assay [3], 1 to 10 µg/mL (≈ 1.82 to 18.2 µM); in assay [4], over 10 µg/mL; in assay [5], over 10 µg/mL; in assay [6], over 10 µg/mL. Also, the MIC is over 10 µg/mL in assay [7]; 1 to 10 µg/mL (≈ 1.82 to 18.2 µM) in [8]; over 10 µg/mL in assay [9]; over 10 µg/mL in assay [10]; over 10 µg/mL in [11]; over 10 µg/mL in [12]. In addition, the MIC in assay [13], in [14], in assay [15], in [16] and in [17] was under 1 µg/mL in each case.
Turning to `COC(=O)Cn1ccc(CC(C)C)c1C(=O)C(=O)Nc1ccc(N2CCN(c3cc(C)cc(C)n3)CC2)cc1` [Example 89, (2-{4-[4-(4,6-Dimethyl-pyridin-2-yl)-piperazin-1-yl]-phenylaminooxalyl}-3-isobutyl-pyrrol-1-yl)-acetic acid methyl ester], the “MIC grade, A. flavus” value in assay [1] and in assay [7] was 1 (a grade of 1 represents an MIC of greater than 10 mg/L) each time. The “MIC grade, A. fumigatus 210” value in [2] was 3 (A grade of 3 represents an MIC of less than 1 mg/L); in [8], 2 (A grade of 2 represents an MIC of from 1 to 10 mg/L). Besides, the “MIC grade, A. fumigatus” value was 3 (A grade of 3 represents an MIC of less than 1 mg/L) in [3] and 2 (A grade of 2 represents an MIC of from 1 to 10 mg/L) in [9]. Further, the “MIC grade, A. niger” value in assay [4] and in [10] was 2 (A grade of 2 represents an MIC of from 1 to 10 mg/L) each time. The “MIC grade, A. terreus 49” value in assay [5] is 2 (A grade of 2 represents an MIC of from 1 to 10 mg/L); in [11], 1 (a grade of 1 represents an MIC of greater than 10 mg/L). Further, the “MIC grade, A. terreus” value is reported as 2 (A grade of 2 represents an MIC of from 1 to 10 mg/L) in assay [6] and 1 (a grade of 1 represents an MIC of greater than 10 mg/L) in assay [12]. For the same compound, the “Candida MIC, C. albicans” value in [13] is on record as 2 (A grade of 2 represents an MIC of from 1 to 10 mg/L). Further, the “Candida MIC, C. glabrata” value in [14] is 3 (A grade of 3 represents an MIC of less than 1 mg/L). In addition, in assay [15], the “Candida MIC, C. krusei” value is 3 (A grade of 3 represents an MIC of less than 1 mg/L). Besides, the “Candida MIC, C. parapsilosis” value in [16] is listed as 3 (A grade of 3 represents an MIC of less than 1 mg/L). The “Candida MIC, C. tropicalis” value in [17] is 3 (A grade of 3 represents an MIC of less than 1 mg/L).
